The values below are quoted from earlier work in US7176199B2, “Aryl-substituted alicyclic compound and medical composition comprising the same” (Dainippon Pharmaceutical Co., Ltd., priority 2001, dated 2007).

Like-named read-outs stand apart in the source and are kept apart here.

The target in one series is GPIIb/IIIa (Homo sapiens, UniProt P05106+P08514). Particulars: read-out: GPIIb/IIIa inhibitory activity IC50 value, cited from earlier work.
The next series addresses αvβ3 integrin (Homo sapiens, UniProt P05106+P06756). As to conditions: reported in WO 99/52872; read-out: αvβ3 integrin inhibitory activity IC50 value; cited from earlier work.

GPIIb/IIIa, sequence (P08514 32-887 limits assumed): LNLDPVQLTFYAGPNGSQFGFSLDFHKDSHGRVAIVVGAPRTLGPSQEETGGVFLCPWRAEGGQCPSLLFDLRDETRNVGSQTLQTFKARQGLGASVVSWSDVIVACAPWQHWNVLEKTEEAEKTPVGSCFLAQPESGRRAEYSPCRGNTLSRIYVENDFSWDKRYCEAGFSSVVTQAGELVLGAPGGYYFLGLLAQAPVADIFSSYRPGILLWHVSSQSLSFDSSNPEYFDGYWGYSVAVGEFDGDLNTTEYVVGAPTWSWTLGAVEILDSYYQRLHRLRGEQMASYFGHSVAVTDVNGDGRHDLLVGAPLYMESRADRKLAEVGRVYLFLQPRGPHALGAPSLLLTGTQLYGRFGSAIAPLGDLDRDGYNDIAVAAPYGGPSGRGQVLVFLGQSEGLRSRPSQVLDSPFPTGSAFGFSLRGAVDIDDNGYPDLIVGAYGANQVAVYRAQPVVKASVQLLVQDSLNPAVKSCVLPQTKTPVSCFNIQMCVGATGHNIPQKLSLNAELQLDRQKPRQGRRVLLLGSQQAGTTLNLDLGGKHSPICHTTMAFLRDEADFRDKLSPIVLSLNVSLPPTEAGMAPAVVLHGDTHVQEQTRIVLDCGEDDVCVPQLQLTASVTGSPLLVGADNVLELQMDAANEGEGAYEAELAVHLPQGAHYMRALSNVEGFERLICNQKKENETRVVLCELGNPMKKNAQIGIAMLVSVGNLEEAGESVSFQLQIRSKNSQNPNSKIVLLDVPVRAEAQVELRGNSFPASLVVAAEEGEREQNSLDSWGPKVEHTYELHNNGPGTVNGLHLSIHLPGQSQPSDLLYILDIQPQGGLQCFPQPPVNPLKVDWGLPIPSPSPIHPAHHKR
GPIIb/IIIa, sequence (P08514 891-1039 partner limits assumed): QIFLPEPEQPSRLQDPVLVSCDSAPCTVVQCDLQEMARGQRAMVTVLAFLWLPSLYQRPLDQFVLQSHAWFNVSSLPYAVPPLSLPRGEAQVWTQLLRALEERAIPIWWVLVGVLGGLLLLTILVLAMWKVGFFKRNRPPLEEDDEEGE
GPIIb/IIIa, sequence (P05106 27-788): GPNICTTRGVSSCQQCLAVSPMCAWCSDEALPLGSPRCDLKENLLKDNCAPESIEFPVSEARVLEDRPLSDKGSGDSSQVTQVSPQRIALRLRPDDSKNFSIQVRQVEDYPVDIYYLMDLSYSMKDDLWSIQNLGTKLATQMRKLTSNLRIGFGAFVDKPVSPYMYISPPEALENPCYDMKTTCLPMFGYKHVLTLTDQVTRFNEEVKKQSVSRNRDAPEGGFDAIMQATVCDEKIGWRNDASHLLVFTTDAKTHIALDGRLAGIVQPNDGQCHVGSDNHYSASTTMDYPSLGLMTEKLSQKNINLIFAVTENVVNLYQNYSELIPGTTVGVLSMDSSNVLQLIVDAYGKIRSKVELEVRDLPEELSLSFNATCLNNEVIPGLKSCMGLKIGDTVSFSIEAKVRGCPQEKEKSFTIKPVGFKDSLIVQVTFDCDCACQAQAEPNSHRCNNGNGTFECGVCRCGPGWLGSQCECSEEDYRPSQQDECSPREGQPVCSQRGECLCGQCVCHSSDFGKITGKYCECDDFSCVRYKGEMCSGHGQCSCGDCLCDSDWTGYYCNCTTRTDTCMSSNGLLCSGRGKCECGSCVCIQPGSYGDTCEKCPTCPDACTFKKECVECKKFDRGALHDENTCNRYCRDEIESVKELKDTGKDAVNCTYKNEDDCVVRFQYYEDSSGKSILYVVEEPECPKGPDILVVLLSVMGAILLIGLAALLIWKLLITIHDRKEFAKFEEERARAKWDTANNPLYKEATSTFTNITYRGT
αvβ3 integrin, sequence (P06756 31-889 limits assumed): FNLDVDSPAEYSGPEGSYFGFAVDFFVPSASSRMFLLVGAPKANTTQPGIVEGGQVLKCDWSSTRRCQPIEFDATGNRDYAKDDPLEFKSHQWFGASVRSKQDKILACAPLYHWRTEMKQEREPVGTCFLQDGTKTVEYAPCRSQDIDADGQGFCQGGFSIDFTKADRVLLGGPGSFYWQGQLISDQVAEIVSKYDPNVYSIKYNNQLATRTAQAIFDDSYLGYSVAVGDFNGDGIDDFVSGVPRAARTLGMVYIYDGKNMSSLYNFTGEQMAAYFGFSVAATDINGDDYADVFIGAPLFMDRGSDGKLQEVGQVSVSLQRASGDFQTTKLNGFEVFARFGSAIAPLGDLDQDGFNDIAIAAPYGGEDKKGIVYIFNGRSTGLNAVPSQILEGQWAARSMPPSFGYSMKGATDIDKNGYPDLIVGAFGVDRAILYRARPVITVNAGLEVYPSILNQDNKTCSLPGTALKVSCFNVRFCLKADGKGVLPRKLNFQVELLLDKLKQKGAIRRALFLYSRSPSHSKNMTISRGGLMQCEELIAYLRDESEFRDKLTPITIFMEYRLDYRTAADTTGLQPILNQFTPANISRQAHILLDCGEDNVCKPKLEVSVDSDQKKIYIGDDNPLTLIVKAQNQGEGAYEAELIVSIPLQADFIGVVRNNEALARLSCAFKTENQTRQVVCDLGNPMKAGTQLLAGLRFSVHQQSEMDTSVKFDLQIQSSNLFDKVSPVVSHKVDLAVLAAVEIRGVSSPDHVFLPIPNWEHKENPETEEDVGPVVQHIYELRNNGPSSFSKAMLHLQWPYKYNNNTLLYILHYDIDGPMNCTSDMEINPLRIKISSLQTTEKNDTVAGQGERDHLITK
αvβ3 integrin, sequence (P06756 891-1048 partner limits assumed): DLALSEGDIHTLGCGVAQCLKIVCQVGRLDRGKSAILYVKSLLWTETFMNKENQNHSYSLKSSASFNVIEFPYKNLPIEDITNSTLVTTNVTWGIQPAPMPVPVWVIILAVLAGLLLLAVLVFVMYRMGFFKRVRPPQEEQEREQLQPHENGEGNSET
αvβ3 integrin, sequence (P05106 27-788): as the sequence (P05106 27-788) above

In the case of `O=C(NC[C@H](NS(=O)(=O)c1ccccc1)C(=O)O)c1ccc(N2CCC(NC3=NCCCN3)CC2)c(F)c1` [Example A-2, (2S)-2-benzenesulfonylamino-3-[3-fluoro-4-[[4-(1,4,5,6-tetrahydropyrimidin-2-yl)amino]-piperidin-1-yl]benzoylamino]propanoic acid], the IC50 on GPIIb/IIIa (reported in WO 99/52872) and at αvβ3 integrin was at most 1 nM each time.

As to `O=C(NC[C@H](NS(=O)(=O)c1ccccc1)C(=O)O)c1ccc(N2CCN(C3=NCCCN3)CC2)c(Cl)c1` [Example A-1, (2S)-2-benzenesulfonylamino-3-[3-chloro-4-[4-(1,4,5,6-tetrahydropyrimidin-2-yl)piperazin-1-yl]benzoylamino]propanoic acid], on GPIIb/IIIa (reported in WO 99/38849), the IC50 is at most 0.2 nM.
